Reference: patent US20100249138A1, “MPZP: A SMALL MOLECULE CORTICOTROPIN-RELEASING FACTOR TYPE 1 RECEPTOR (CRF1) ANTOGONIST” (priority 2007, published 2010)

How the values were obtained:
[1] = test system: 62 other receptors, transporters, and ion channels; assay: Novascreen side-effect potential screening assay (GEN SEP I panel); assay type: binding; conditions: 10 μM
Description: Specificity of MPZP for other receptor, transporter, and ion channel targets was determined at 1 and 10 μM concentrations via a commercial screening service (Novascreen, GEN SEP I panel, Hanover, Md.).

CRF1 receptors = target: T1, CRF1 receptors (Rattus norvegicus, UniProt P35353); assay: CRF receptor autoradiography, rat brain sections, CRF1-rich regions; assay type: binding; design: from tissue
T1 sequence (P35353 24-415): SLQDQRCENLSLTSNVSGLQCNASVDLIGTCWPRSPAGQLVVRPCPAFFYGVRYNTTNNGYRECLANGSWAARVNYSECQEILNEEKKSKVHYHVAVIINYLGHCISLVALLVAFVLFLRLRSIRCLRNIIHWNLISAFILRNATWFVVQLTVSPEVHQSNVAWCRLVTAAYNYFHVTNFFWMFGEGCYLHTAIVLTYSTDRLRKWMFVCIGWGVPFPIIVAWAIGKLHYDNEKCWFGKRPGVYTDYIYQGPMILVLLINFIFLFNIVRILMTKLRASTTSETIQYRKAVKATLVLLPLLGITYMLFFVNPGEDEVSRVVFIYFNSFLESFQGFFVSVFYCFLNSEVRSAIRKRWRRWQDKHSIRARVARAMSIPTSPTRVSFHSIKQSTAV
Description: For CRF receptor autoradiography, brain tissue was sectioned coronally (20 μm) using a cryostat (−17° C.). Sections were mounted on Superfrost Plus+ charged glass slides (Fisher Scientific, Pittsburgh, Pa.), permitted to dry completely, and stored in airtight boxes at −80° C. until the day of autoradiography. Autoradiography was performed using standard procedures based on the previous characterization of [^125I]Tyr^0-sauvagine [Grigoriadis et al., Mol. Pharmacol. (1996) 50:679-686].
Slides containing triplicate adjacent brain sections were thawed to room temperature and permitted to dry completely. Each section then was outlined using a PAP pen (Calbiochem, San Diego, Calif.). Sections were incubated in assay buffer (DPBS with 10 mM MgCl2, 2 mM EGTA, 1 tablet/100 ml protease inhibitor, 0.15% bovine serum albumin) for 15 minutes to remove endogenous ligand. Slides then were incubated under one of four conditions: (1) 0.2 nM […] to determine total binding; (2) 0.2 nM radiolabeled sauvagine+1 μM R121919 (below)
to determine non-CRF1 (e.g., CRF2) receptor binding; (3) 0.2 nM radiolabeled sauvagine+3 μM MPZP to determine non-CRF1 (e.g., CRF2) receptor binding using the experimental compound under study; (4) 0.2 nM radiolabeled sauvagine+0.3 μM unlabeled D-Phe-CRF12-41, a subtype-nonspecific CRF receptor antagonist, to determine non-CRF1/CRF2 (e.g., nonspecific binding). […]

COCCN(CCOC)c1cc(C)nc2c(-c3ccc(OC)cc3C)c(C)nn12 [MPZP, N,N-bis(2-methoxyethyl)-3-(4-methoxy-2-methylphenyl)-2,5-dimethyl-pyrazolo[1,5-a]pyrimidin-7-amine]
activity at 62 other receptors, transporters, and ion channels [1]: did not exhibit high activity
displacement of [125I]-Tyr0-sauvagine (CRF1-like binding) (CRF1 receptors; cerebral cortex, concentration printed 1 mM): displaces the majority
displacement of [125I]-Tyr0-sauvagine binding from CRF1-rich regions (CRF1 receptors; cortex and basolateral amygdala, 3 μM): displaced most
